Experimental data reported in paper PMC6471485, “Selective Inhibitors of a Human Prolyl Hydroxylase (OGFOD1) Involved in Ribosomal Decoding” (Chemistry (Weinheim an Der Bergstrasse, Germany), 2019).
“Also recorded” adds a separate entry of the source.

What was measured:
JARID1B = JARID1B (Homo sapiens, UniProt Q9UGL1); assay: JARID1B AlphaScreen-based assay; type: biochemical
Procedure: reactions were quenched after 4 min. KDM4A inhibition was tested as described previously using a formaldehyde dehydrogenase (FDH) assay.[9] JARID1B and JARID1C inhibition was tested as described previously using reported AlphaScreen-based assays.[10] MINA531-464 and NO66116-641 were cloned into pFB-LIC-Bse, and the N-terminal His-tagged proteins were produced in Sf9 insect cells. The MINA53 peptide substrate Rpl27a […]
(Gly31 – Pro49 […]) and the NO66 peptide substrate Rpl8
(Asn205 – Thr224 […]) were synthesized by Peptide Protein
Research Ltd (Fareham, Hampshire, UK) to >95% purity. IC50 determinations were performed in 384-well polypropylene plates (Greiner Bio One, Cat Number 781096), and compound dispenses were performed using an ECHO 550 acoustic dispenser (Labcyte, Sunnyvale, CA).
NO66 (diluted to 375 nM in 50 mM MES pH 7.0, 150 mM NaCl) and MINA53 (diluted to 187.5 nM in 50 mM HEPES pH 7.5, 50 mM NaCl) were dispensed (40 µL) into 384-well compound plates using a multidrop combi reagent dispenser (Thermo Scientific, Code 5840300) with a small tube plastic tip dispensing cassette (Thermo Scientific, Code 24073290).
NO66 and MINA53 were pre-incubated with compound for 15 minutes, and the enzyme reaction initiated by dispensing 10 µL of substrate solution [250 µM (NH4)2Fe(SO4)2, 500 µM sodium ascorbate, 25 µM 2OG, 25 µM peptide] in optimized enzyme buffer. […]

[1] = tested on: PHD enzymes in HeLa cells; assay: HIFα Western blot in HeLa cells (activity of PHD enzymes in cells); type: cell-based, human; settings: HeLa cells treated 5 h, anti-HIF-1α Western blot
Procedure: (§1) supplemented with 80 µM Zn(II), 70 µM of inhibitor, all in 50 mM Tris-d11, pH 7.5, 10 % D2O, […]
(§2) Cell Culture and Immunoblotting
(§3) HeLa cells were cultured in DMEM media supplemented with 10 % fetal bovine serum, 4 mM L-glutamine, 100 U/mL penicillin, and 100 µg/mL streptomycin. Cells were treated with the indicated compounds, prepared in 1% DMSO, for 5 h. Following a PBS buffer rinse, cells were lysed in urea/SDS buffer supplemented with 1 mM dithiothreitol. Cell extracts were analyzed by SDS-PAGE, electroblotted onto PVDF membranes (Millipore) and probed with anti-HIF-1α antibody (clone 54, BD Transduction Laboratories) at 1:1000 dilution for 1 h at room temperature. The HRP-conjugated secondary antibody was then applied at room temperature for 1 h. Target proteins were detected with SuperSignal Chemiluminescent […]
(§4) ADMET in vitro Predictors
S9 liver microsome stability assays and MDCK-MDR1 efflux assays were carried out for CCT3 and CCT4 by Cyprotex (UK). Additional details are provided later in the Supporting

[2] = MDR1-MDCK in vitro permeability assay (Cyprotex); type: in vitro ADME; settings: dog; MDR1-MDCK; read-out: permeability coefficient
Procedure: as §1, §2, §3, §4
(§5) S9 liver microsome stability assays and MDCK-MDR1 efflux assays were carried out for CCT3 and CCT4 by Cyprotex (UK). Additional details are provided later in the Supporting […]
(§6) The solubility and metabolic stability of CCT3 and CCT4 was preliminarily evaluated using a S9 liver microsome assay (Cyprotex, UK). According to the assay, CCT3 and CCT4 had […]
(§7) respectively, and are thus classified as having low clearance (< 8.6 µL/min/mg protein).
(§8) The cell permeability of CCT3 and CCT4 were evaluated using an MDR1-MDCK in vitro […]
(§9) able to penetrate the blood-brain barrier. The permeability coefficients were determined to be

MDR1-MDCK = MDR1-MDCK in vitro permeability assay (Cyprotex); type: in vitro ADME; settings: for cell permeability, in words: MDR1-MDCK; for predicted blood-brain barrier permeability, in words: prediction from MDR1-MDCK assay
Procedure: as §1, §2, §3, §4, §5, §6, §7, §8, §9

Sequence of JARID1B (Q9UGL1 whole entry): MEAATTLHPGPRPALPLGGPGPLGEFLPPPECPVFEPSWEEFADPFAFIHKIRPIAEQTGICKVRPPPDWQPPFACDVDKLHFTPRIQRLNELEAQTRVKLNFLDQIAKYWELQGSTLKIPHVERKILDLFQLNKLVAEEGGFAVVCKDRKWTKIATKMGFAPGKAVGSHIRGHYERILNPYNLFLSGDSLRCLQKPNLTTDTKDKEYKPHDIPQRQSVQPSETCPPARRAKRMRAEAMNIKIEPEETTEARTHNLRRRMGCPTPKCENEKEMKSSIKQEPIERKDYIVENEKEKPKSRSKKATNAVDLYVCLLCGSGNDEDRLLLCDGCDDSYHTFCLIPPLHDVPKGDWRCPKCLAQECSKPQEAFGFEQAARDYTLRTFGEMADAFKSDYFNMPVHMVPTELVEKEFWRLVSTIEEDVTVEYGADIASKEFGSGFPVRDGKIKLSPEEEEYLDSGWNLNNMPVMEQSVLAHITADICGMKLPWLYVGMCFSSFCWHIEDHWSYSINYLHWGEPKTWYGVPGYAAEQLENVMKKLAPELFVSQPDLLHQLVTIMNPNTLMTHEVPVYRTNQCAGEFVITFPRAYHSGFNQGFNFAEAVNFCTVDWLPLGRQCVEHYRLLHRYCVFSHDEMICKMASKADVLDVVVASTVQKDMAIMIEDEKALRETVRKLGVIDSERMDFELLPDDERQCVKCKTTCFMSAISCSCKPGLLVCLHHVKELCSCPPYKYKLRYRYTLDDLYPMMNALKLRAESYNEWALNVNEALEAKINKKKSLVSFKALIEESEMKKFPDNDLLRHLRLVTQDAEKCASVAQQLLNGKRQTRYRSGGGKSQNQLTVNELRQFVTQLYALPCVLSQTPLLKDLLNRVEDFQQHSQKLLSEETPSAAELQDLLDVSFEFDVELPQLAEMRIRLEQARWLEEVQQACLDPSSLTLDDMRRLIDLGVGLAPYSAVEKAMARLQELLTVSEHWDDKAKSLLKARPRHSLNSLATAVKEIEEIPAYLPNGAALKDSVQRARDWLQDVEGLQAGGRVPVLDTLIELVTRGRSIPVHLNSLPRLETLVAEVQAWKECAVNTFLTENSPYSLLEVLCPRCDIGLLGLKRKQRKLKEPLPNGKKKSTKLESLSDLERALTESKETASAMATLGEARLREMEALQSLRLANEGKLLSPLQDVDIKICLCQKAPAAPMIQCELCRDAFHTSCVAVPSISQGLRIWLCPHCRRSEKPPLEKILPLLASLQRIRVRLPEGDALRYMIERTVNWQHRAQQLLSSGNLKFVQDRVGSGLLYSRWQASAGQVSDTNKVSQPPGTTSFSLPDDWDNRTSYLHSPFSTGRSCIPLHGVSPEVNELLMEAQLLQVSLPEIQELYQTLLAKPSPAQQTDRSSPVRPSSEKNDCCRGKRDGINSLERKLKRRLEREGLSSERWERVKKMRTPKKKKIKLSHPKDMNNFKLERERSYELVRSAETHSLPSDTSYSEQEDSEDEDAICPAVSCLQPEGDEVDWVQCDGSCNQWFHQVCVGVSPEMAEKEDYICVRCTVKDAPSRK

Structure (SMILES) | IC50 (JARID1B) [µM] | HIFα stabilization in HeLa cells, in words [1] | Papp [2] [×10⁻⁶ cm/s] | cell permeability, in words (MDR1-MDCK) | predicted blood-brain barrier permeability, in words (MDR1-MDCK; listed as CCT4) | predicted blood-brain barrier permeability, in words (MDR1-MDCK; listed as CCT3)
Cn1c(O)c(C(=O)CCc2cccs2)c(=O)n(C)c1=O [compound 42] | > 100 | did not stabilize HIFα | 62.7 | good cell permeability properties | brain uptake is likely; also recorded: predicted to be permeable to the blood brain barrier | –
Cn1c(O)c(C(=O)CCc2ccccc2)c(=O)n(C)c1=O [compound 26] | > 100 | did not stabilize HIFα | 58.5 | good cell permeability properties | – | brain uptake is likely; also recorded: predicted to be permeable to the blood brain barrier
